Measured values from patent US5874235A, “Screening assays for cancer chemopreventative agents” (The Johns Hopkins University, priority 1997, dated 1999).
Where two headings read alike, the source gives them in different places.

Legend:
HCT116 cells [1] = type: cell-based, human
Experimental: FIGS. 1A, 1B and 1C NSAID induce apoptosis in human colorectal cancer cells. In FIG. […] Cells were collected at the indicated times, fixed and stained with Hoechst 33258 (23). The cells were counted and those with fragmented nuclei were scored as apoptotic. In FIG. 1B, HCT116 and SW480 cells were treated with SUS or INDO for 60 hours, harvested and stained as described above. Cells treated with SUS or INDO show the hallmarks of apoptosis.
This death appeared to be apoptotic, as it was accompanied by nuclear condensation and fragmentation (FIG. 1B) and exposure of phosphatidylserine groups on the cell surface, two hallmarks of apoptosis (11, 12).

HCT116 cells [2] = assay: Phosphatidylserine exposure by merocyanine staining; type: cell-based, human; conditions: 125 μM SUS, 48 hours
Experimental: (§1) Phosphatidylserine exposure was assessed by merocyanine staining as previously described (31). Forty-eight hours after treatment with 125 μM SUS, 44% of HCT116 stained with merocyanine versus 4% in the vehicle-treated control cells. Likewise, 74% of SW480 cells stained with merocyanine 50 hours after treatment with 200 μM SUS versus 1.5% of the vehicle-treated control cells.

SW480 cells [3] = assay: as above; type: cell-based, human; conditions: 200 μM SUS, 50 hours
Experimental: as §1

HCT116 cells [4] = assay: Ceramide levels, E. coli diacylglycerol (DAG) kinase assay; type: cell-based, human
Experimental: (§2) Cells were harvested and ceramide was quantified. The first lane of each panel corresponds to a ceramide standard (ceramide type III, Sigma). […] HCT116 and SW480 cells were treated with SUS or INDO as indicated. Ceramide levels were determined as described above. […] Control cells were treated with DMSO vehicle only. Cells were harvested at the indicated times following treatment and ceramide levels were determined as described above. The data are plotted as the mean of at least two experiments with the error bars corresponding to the standard deviation.
(§3) Ceramide levels were measured using the Escherichia coli diacylglycerol (DAG) kinase assay as previously described (30) with the following modifications. After the initial lipid extraction, phases were broken by adding 2 ml chloroform and 2 ml 1M NaCl and lipids were washed with 1M NaCl prior to drying under nitrogen (32, 33). After solubilization, samples were sonicated for 15 seconds. The DAG reaction was performed for 30 minutes at 25° C. in a 100 μl reaction volume with 3.5 μg DAG kinase (Calbiochem) and […] γ^32 P-ATP (Dupont NEN, 6000 Ci/mmol). After extraction of the labeled lipids, the lower chloroform phase was washed with 1% HCl prior to drying under nitrogen. The solvent mixture for thin layer chromatography was chloroform:acetone:methanol:acetic acid:water (10:4:3:2:1). Samples were quantitated using a Phosphorimager (Molecular Dynamics).

SW480 cells [5] = assay: as above; type: cell-based, human
Experimental: as §2, §3

COX in SW480 cells = assay: COX activity in treated cells; type: cell-based, human
[6] = tested on: neutral sphingomyelinase in HCT116 cell lysates; assay: Neutral sphingomyelinase activity in lysates of treated cells (14C-sphingomyelin hydrolysis); type: cell-based, human; conditions: for neutral sphingomyelinase activity relative to untreated controls: 200 μM SUS
Experimental: (§4) To test whether the increased ceramide was associated with evidence of augmented sphingomyelinase activity, we measured total sphingomyelin levels after SUS treatment. […] We also measured neutral sphingomyelinase activity in lysates from the treated cells and no differences were found. Neutral sphingomyelinase activity was assayed as described (18). After cell lysis, protein concentrations were determined using the Bradford method (Bio-Rad) and […] cellular protein was used in each assay. Neutral sphingomyelinase activity was determined by measuring the rate of hydrolysis of ^14 C-labelled sphingomyelin (Amersham). SW480 and HCT116 cell lines were treated with SUS (50, 200, and 600 μM) for 6 to 24 hours.

[7] = tested on: neutral sphingomyelinase in SW480 cell lysates; assay: as above; type: cell-based, human; conditions: SUS 50, 200 and 600 μM, 6 to 24 hours
Experimental: as §4

[8] = tested on: primary human diploid fibroblast (HDF); assay: Ceramide levels in primary fibroblasts; type: cell-based; conditions: 200 μM SUS, 48 hours, read-out: increase in ceramide levels
Experimental: as §3
(§5) This ability of SUS is not limited to colon cancer cells; primary fibroblasts and immortalized keratinocytes can increase ceramide levels and undergo apoptosis in response to SUS. […] Forty-eight hours after exposure to 200 μM SUS greater than 70% of the cells had undergone apoptosis and ceramide levels were 8.2 and 4.7 fold increased in HDF and HaCat cells, respectively. […]

[9] = tested on: immortalized human keratinocytes (HaCat); assay: Ceramide levels in immortalized keratinocytes; type: cell-based; conditions: 48 h, read-out: increase in ceramide levels
Experimental: as §3, §5

[10] = 8 hours post-treatment, before morphologic features of apoptosis

Question: What does the source list for CSc1ccc(/C=C2/C(C)=C(CC(=O)O)c3cc(F)ccc32)cc1 [SUS, sulindac sulfide]?
Answer: apoptosis (HCT116 cells [1]; 200 μM SUS, 16 hours): the majority of cells had not yet undergone apoptosis; cell death (HCT116 cells [1]; SUS 50 μM): induced neither; apoptosis (HCT116 cells [1]; SUS 125 μM, with or without 10 μM CHX, 48 hours): underwent apoptosis; cells stained with merocyanine (HCT116 cells [2]): 44%; cells stained with merocyanine (SW480 cells [3]): 74%; ceramide levels early after treatment (HCT116 cells [4]; [10]): increased to substantial levels; fold induction at 125 µM (HCT116 cells [4]; Homo sapiens, HCT-116, SUS 125 μM, with or without 10 μM CHX, 48 hours, read-out: fold increase in ceramide levels relative to vehicle controls): 10 ± 0.4; ceramide induction (HCT116 cells [4]; SUS 50 μM): induced neither; ceramide induction (HCT116 cells [4]; SUS 125 μM): induced both cell death and ceramide; time of maximum ceramide induction (HCT116 cells [4]; SUS 125 μM): 24 to 48 h; ceramide levels early after treatment (SW480 cells [5]; [10]): increased to substantial levels; fold induction at 200 µM (SW480 cells [5]; Homo sapiens, SW480, SUS 200 μM, with or without 10 μM CHX, 48 hours, read-out: fold increase in ceramide levels relative to vehicle controls): 9.2 ± 0.1; magnitude of the ceramide increase (SW480 cells [5]; SUS): 10 fold; ceramide induction (SW480 cells [5]; SUS 50 μM): did not induce ceramide; ceramide induction (SW480 cells [5]; SUS 100 μM): not at 100 μM; ceramide induction (SW480 cells [5]; SUS 200 μM): induced both ceramide and cell death; time of maximum ceramide induction (SW480 cells [5]; SUS 200 μM): 24 to 48 h; effect on ceramide levels (SW480 cells [5]; suboptimal doses, 100 μM each, separately or together, 48 hours): little effect on ceramide levels; COX activity, % of controls (COX in SW480 cells; 50 μM SUS): 74+/-22%; COX activity, % of controls (COX in SW480 cells; 200 μM SUS): 37+/-27%; neutral sphingomyelinase activity relative to untreated controls ([6]; 6 hours): 90%; neutral sphingomyelinase activity relative to untreated controls ([6]; 16 hours): 92%; neutral sphingomyelinase activity in cell lysates ([6]; SUS 50, 200 and 600 μM, 6 to 24 hours): None of these treatments enhanced neutral sphingomyelinase activity; neutral sphingomyelinase activity in cell lysates [7]: None of these treatments enhanced neutral sphingomyelinase activity; fold induction at 200 µM [8]: 8.2; fold induction at 200 µM [9]: 4.7
